# Laboratory results: PMC5537305, “Photo-enhanced Aqueous Solubilization of an Azo-compound” (Scientific Reports, 2017)
# Where “and” joins values, the source holds several entries; their conditions need not be identical. Equal values may be shown once. Read-outs that look alike come from different tables or passages of the source.
# How the values were obtained:
# [1] = Aqueous solubilization of 3 under irradiation at various wavelengths (xenon flash lamp, 96-well plate); assay type: physicochemical; settings: for solubility at 1 h: phosphate buffer, 21 °C, pH 7.4, aqueous buffer, thermodynamic from solid, read-out: Aqueous solubilized 3; for solubility at 1 h / Cis ratio: 1 h
# Procedure: (§1) Table S4. Aqueous solubilization and cis ratio of 3 under irradiation at various wavelengths through filters of […]
# Illumination was performed with a xenon lamp using repeated cycles of irradiation and shaking (5000 flashes, then shaking for 10 sec) through filters of various bandwidths at room temperature (20-22 °C) for 1 h. The cis ratio in the aqueous solution was evaluated by HPLC immediately after filtration, based on peak area. […]
# For irradiation at various UV wavelengths, 3 (about 0.1 mg) was ground and taken up in 1/15 M phosphate buffer (pH 7.4, 0.2 mL) in a well of a 96-well white plate. Illumination over a range of wavelength from 355-540 nm was performed using a plate reader EnVision equipped with a xenon flash lamp (35 W, 500 Hz), with excitation filters of appropriate bandwidths. A protocol of irradiation and shaking cycles (5000 flashes, then shaking for 10 sec) was repeated for 1 h at room temperature (20-22 °C). Then, the suspension was filtered through a Millipore Millex-LG (0.20 µm).
# [2] = Aqueous solubilization in 1/15 M phosphate buffer (pH 7.4) under UV, visible light or dark, with cis ratio in solution by HPLC; assay type: physicochemical; settings: for increase of aqueous solubilization, UV irradiation vs dark: mercury lamp 0.5 mW/cm2; for Aqueous solubilized 3: successive irradiations
# Procedure: Table S3. Cis ratio and aqueous solubilization of 3 under UV irradiation, under visible light irradiation, and in […]
# Compound 3 was shaken at 37 °C under UV irradiation, under visible light irradiation, and in the dark. UV irradiation was performed with a mercury lamp (0.5 mW/cm2). Cis ratio in the aqueous solution was evaluated from the peak areas in HPLC immediately after filtration.
# as §1
# Illumination was performed with a xenon lamp using repeated cycles of irradiation and shaking (5000 flashes, then shaking for 10 sec) through filters of various bandwidths at room temperature (20-22 °C) for 1 h. The cis ratio in the aqueous solution was evaluated by HPLC immediately after filtration, based on peak area.
# Table S5. Aqueous solubilization of 3 under UV irradiation at various intensity levels.
# Sample irradiation was conducted using 365 nm LED light (max light intensity: 290 mW/cm2) at 37 °C for 1 […]
# Sample irradiations were conducted with the white light through a filter cutting off wavelengths below 560 nm, or with 365 nm LED light (344 mW/cm2) at 37 °C for 1 h.
# Table S7. Aqueous dissolution of UV-irradiated crystals of 3 measured in the dark, and the cis ratio contained […]
# Crystals of 3 were irradiated with 365 nm LED light (344 mW/cm2) at 37 °C for 3 h.
# The UV-irradiated crystals and unirradiated crystals were each shaken in phosphate buffer in the dark at 37 °C for 1 h.
# Physicochemical properties […]
# Compound 3 (about 0.2 mg) was ground and taken up in 1/15 M phosphate buffer (pH 7.4, 1.0 mL) in a 10 mL glass tube. The suspension was incubated under ultrasound irradiation for 10 min, and shaken in a temperature controllable incubator located in a dark room for the indicated time at the indicated temperature.
# With shaking on a plate shaker, a sample was irradiated with a 365 nm mercury lamp (4 W, UVP compact […]
# white LED light (5 W, Nikki Trading Corp., NLSS05BM, 68 and 54 mW/cm2 at 450 and 540 nm, respectively) through a filter cutting off wavelengths below 560 nm (Atto Corp. YA-3). Irradiation was done from the top of the sample glass tube. Then, the suspension was filtered through a Millipore Millex-LG (0.20 […]
# For irradiation at various UV wavelengths, 3 (about 0.1 mg) was ground and taken up in 1/15 M phosphate buffer (pH 7.4, 0.2 mL) in a well of a 96-well white plate. Illumination over a range of wavelength from 355-540 nm was performed using a plate reader EnVision equipped with a xenon flash lamp (35 W, 500 Hz), with excitation filters of appropriate bandwidths.
# [3] = wavelength 380 nm, bandwidth 10 nm, room temperature
# [4] = wavelength 405 nm, bandwidth 8 nm, room temperature
# [5] = wavelength 450 nm, bandwidth 8 nm, room temperature
# [6] = wavelength 485 nm, bandwidth 14 nm, room temperature
# [7] = wavelength 535 nm, bandwidth 25 nm, room temperature
# [8] = wavelength 540 nm, bandwidth 8 nm, room temperature
smiles,measurement,setting,value
CC(C)n1nc(/N=N/c2ccccc2)c2c(N)ncnc21 [Compound 3],trans ratio at photostationary state (maximum),[1]; irradiation at 535 nm,93%
same,solubility at 1 h,"[1]; wavelength 355 nm, bandwidth 40 nm, room temperature (20-22 °C)",4.8 µg/mL
same,solubility at 1 h,[1]; [3],2.8 µg/mL
same,solubility at 1 h,[1]; [4],2.4 µg/mL
same,solubility at 1 h,[1]; [5],0.75 µg/mL
same,solubility at 1 h,[1]; [6],0.47 µg/mL
same,solubility at 1 h,[1]; [7],0.57 µg/mL
same,solubility at 1 h,[1]; [8],0.28 µg/mL
same,Cis ratio,"[1]; wavelength 355 nm, bandwidth 40 nm, room temperature",90%
same,Cis ratio,[1]; [3],90%
same,Cis ratio,[1]; [4],78%
same,Cis ratio,[1]; [5],44%
same,Cis ratio,[1]; [6],20%
same,Cis ratio,[1]; [7],7%
same,Cis ratio,[1]; [8],7%
same,cis ratio in solution after UV irradiation,"[2]; 365 nm LED, roughly constant, independent of light intensity",~90%
same,"increase of aqueous solubilization, UV irradiation vs dark","[2]; 0.5 h, 37 °C",3.5 fold
same,"increase of aqueous solubilization, UV irradiation vs dark","[2]; 1 h, 37 °C",5.0 fold
same,"increase of aqueous solubilization, UV irradiation vs dark","[2]; 5 h, 37 °C",7.1 fold and 7 fold
same,cis ratio,"[2]; Dark, 37 °C, shake time 0.5 h",6%
same,cis ratio,"[2]; Dark, 37 °C, shake time 1 h",4%
same,cis ratio,"[2]; Dark, 37 °C, shake time 5 h",7%
same,cis ratio,"[2]; UV light (mercury lamp 0.5 mW/cm2), 37 °C, shake time 0.5 h",77%
same,cis ratio,"[2]; UV light (mercury lamp 0.5 mW/cm2), 37 °C, shake time 1 h",80%
same,cis ratio,"[2]; UV light (mercury lamp 0.5 mW/cm2), 37 °C, shake time 3 h",80%
same,cis ratio,"[2]; UV light (mercury lamp 0.5 mW/cm2), 37 °C, shake time 5 h",75%
same,cis ratio,"[2]; UV light (mercury lamp 0.5 mW/cm2), 37 °C, shake time 8 h",87%
same,cis ratio,"[2]; Visible light, 37 °C, shake time 1 h",25%
same,cis ratio,"[2]; Visible light, 37 °C, shake time 5 h",25%
same,cis ratio,"[2]; light intensity 0.00 mW/cm2, 365 nm LED, 37 °C, 1 h",4%
same,cis ratio,"[2]; light intensity 4.56 mW/cm2, 365 nm LED, 37 °C, 1 h",89%
same,cis ratio,"[2]; light intensity 29.0 mW/cm2, 365 nm LED, 37 °C, 1 h",92%
same,cis ratio,"[2]; light intensity 290 mW/cm2, 365 nm LED, 37 °C, 1 h",90%
same,increase of aqueous solubilization compared with the dark condition,"[2]; maximum irradiation intensity 290 mW/cm2, 365 nm LED, 37 °C, 1 h",23 fold
same,increase of aqueous solubilization by exposure to UV light,"[2]; phosphate buffer, compared to without irradiation, up to",up to 20 fold
same,solubility at 1 h,"[2]; phosphate buffer, pH 7.4, 46 °C, after 1 h, read-out: aqueous solubility",3.5 µg/mL
same,solubility at 24 h,"[2]; phosphate buffer, pH 7.4, 46 °C, after 24 h",3.2 µg/mL
same,solubility at 1 h,"[2]; phosphate buffer, pH 7.4, Dark, 37 °C, shake time 1 h, read-out: Solubility",3 µg/mL
same,solubility at 0.5 h,"[2]; phosphate buffer, pH 7.4, UV light (mercury lamp 0.5 mW/cm2), 37 °C, shake time 0.5 h, read-out: Solubilized 3",11.1 µg/mL
same,solubility at 1 h,"[2]; phosphate buffer, pH 7.4, UV light (mercury lamp 0.5 mW/cm2), 37 °C, shake time 1 h, read-out: Solubilized 3",14.9 µg/mL
same,solubility at 3 h,"[2]; phosphate buffer, pH 7.4, UV light (mercury lamp 0.5 mW/cm2), 37 °C, shake time 3 h, read-out: Solubilized 3",18.4 µg/mL
same,solubility at 5 h,"[2]; phosphate buffer, pH 7.4, UV light (mercury lamp 0.5 mW/cm2), 37 °C, shake time 5 h, read-out: Solubilized 3",24.7 µg/mL
same,solubility at 8 h,"[2]; phosphate buffer, pH 7.4, UV light (mercury lamp 0.5 mW/cm2), 37 °C, shake time 8 h, read-out: Solubilized 3",24.2 µg/mL
same,solubility at 1 h,"[2]; phosphate buffer, pH 7.4, Visible light, 37 °C, shake time 1 h, read-out: Solubilized 3",4.6 µg/mL
same,solubility at 5 h,"[2]; phosphate buffer, pH 7.4, Visible light, 37 °C, shake time 5 h, read-out: Solubilized 3",5.1 µg/mL
same,solubility at 1 h,"[2]; phosphate buffer, pH 7.4, light intensity 4.56 mW/cm2, 365 nm LED, 37 °C, 1 h, read-out: Aqueous solubilized 3",12.3 µg/mL
same,solubility at 1 h,"[2]; phosphate buffer, pH 7.4, light intensity 29.0 mW/cm2, 365 nm LED, 37 °C, 1 h, read-out: Aqueous solubilized 3",36.2 µg/mL
same,solubility at 1 h,"[2]; phosphate buffer, pH 7.4, light intensity 290 mW/cm2, 365 nm LED, 37 °C, 1 h, read-out: Aqueous solubilized 3",69.6 µg/mL
same,solubility,"[2]; phosphate buffer, pH 7.4, phosphate buffer, in the dark, after 0.5, 1 and 5 h at 37 °C, read-out: aqueous solubility",~3 µg/mL
same,solubility,"[2]; phosphate buffer, pH 7.4, white-light irradiation, after 1 and 5 h, 37 °C, read-out: solubilization",~5 µg/mL
same,Aqueous solubilized 3,"[2]; step 1: visible (white light, filter cutting off below 560 nm), 37 °C, 1 h",1.0 fold
same,Aqueous solubilized 3,"[2]; step 2: UV 365 nm LED 344 mW/cm2, 37 °C, 1 h",35.5 fold
same,Aqueous solubilized 3,"[2]; step 3: visible, 37 °C, 1 h",2.3 fold
same,Aqueous solubilized 3,"[2]; step 4: UV 365 nm LED 344 mW/cm2, 37 °C, 1 h",37.9 fold
same,Aqueous solubilized 3,"[2]; step 5: visible, 37 °C, 1 h",2.9 fold
